From ChEMBL document CHEMBL5260828, “Amphiphilic glycoconjugates as potential anti-cancer chemotherapeutics” (Eur J Med Chem, 2018)
In brackets after ≈: the same amount, converted by molar mass.

Key:
HepG2 = assay: Cytotoxicity against human HepG2 cells assessed as cell growth inhibition by MTT colorimetric assay; type: functional, cell-based
Hep 3B2 = assay: Cytotoxicity against human Hep3B cells assessed as cell growth inhibition by MTT colorimetric assay; type: functional, cell-based
MDA-MB-231 = assay: Cytotoxicity against human MDA-MB-231 cells assessed as cell growth inhibition by MTT colorimetric assay; type: functional, cell-based
Ca9-22 = assay: Cytotoxicity against human Ca9-22 cells assessed as cell growth inhibition by MTT colorimetric assay; type: functional, cell-based
HeLa [1] = assay: Antiproliferative activity against human HeLa cells assessed as inhibition of cell growth incubated for 24 hrs by MTT assay; type: functional, cell-based
MIA PaCa-2 = assay: Cytotoxicity against human MIA PaCa-2 cells assessed as inhibition of cell growth incubated for 72 hrs by CellTiter 96 aqueous one solution assay; type: functional, cell-based; details: MIA PaCa-2, 72 h
PK9 = assay: Cytotoxicity against human PK9 cells assessed as inhibition of cell growth incubated for 72 hrs by CellTiter 96 aqueous one solution assay; type: functional, cell-based; details: PK9, 72 h
AGS = assay: Antiproliferative activity against human AGS cells assessed as inhibition of cell growth incubated for 48 hrs by MTT assay; type: functional, cell-based
SF-268 = assay: Antiproliferative activity against human SF-268 cells assessed as inhibition of cell growth incubated for 48 hrs by MTT assay; type: functional, cell-based
HCT-116 [2] = assay: Antiproliferative activity against human HCT-116 cells assessed as inhibition of cell growth incubated for 48 hrs by MTT assay; type: functional, cell-based
NCI-H460 = assay: Antiproliferative activity against human NCI-H460 cells assessed as inhibition of cell growth incubated for 48 hrs by MTT assay; type: functional, cell-based
MCF7 = assay: Antiproliferative activity against human MCF7 cells assessed as inhibition of cell growth incubated for 48 hrs by MTT assay; type: functional, cell-based
[3] = biological target: RAC-alpha serine/threonine-protein kinase (Homo sapiens, UniProt P31749); assay: Inhibition of AKT1 (unknown origin) in presence of ATP by ELISA
Sequence of RAC-alpha serine/threonine-protein kinase (P31749 whole entry): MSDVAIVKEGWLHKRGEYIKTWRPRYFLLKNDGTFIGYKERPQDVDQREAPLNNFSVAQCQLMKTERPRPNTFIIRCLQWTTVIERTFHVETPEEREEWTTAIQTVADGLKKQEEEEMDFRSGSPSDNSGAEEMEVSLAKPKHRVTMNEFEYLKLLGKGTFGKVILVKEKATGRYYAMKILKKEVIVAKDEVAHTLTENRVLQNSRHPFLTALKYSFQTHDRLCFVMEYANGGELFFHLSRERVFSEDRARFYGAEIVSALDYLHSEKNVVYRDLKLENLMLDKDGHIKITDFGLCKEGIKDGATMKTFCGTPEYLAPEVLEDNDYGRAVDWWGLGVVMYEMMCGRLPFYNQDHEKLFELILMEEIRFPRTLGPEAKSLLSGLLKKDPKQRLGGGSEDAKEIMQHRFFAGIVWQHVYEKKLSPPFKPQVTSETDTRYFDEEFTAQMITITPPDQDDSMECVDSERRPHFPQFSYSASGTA

IGROV-1 [4] = assay: Antiproliferative activity against human IGROV-1 cells assessed as inhibition of cell growth incubated for 72 hrs by Coulter counter assay; type: functional, cell-based; details: IGROV-1, 72 h
IGROV-1 [5] = assay: Antiproliferative activity against human IGROV-1 cells assessed as inhibition of cell growth incubated for 72 hrs in serum-free medium by Coulter counter assay; type: functional, cell-based; details: IGROV-1, 72 h
HeLa S3 [6] = assay: Cytotoxicity against human HeLa S3 cells assessed as inhibition of cell proliferation incubated for 72 hrs by MTT assay; type: functional, cell-based; details: HeLa S3, 72 h
SMMC-7721 = assay: Cytotoxicity against human SMMC-7721 cells assessed as cell growth inhibition incubated for 48 hrs by MTT assay; type: functional, cell-based; details: SMMC-7721, 48 h
HeLa [7] = assay: Cytotoxicity against human HeLa cells assessed as cell growth inhibition incubated for 48 hrs by MTT assay; type: functional, cell-based
B16 [8] = assay: Cytotoxicity against mouse B16 cells assessed as cell growth inhibition incubated for 48 hrs by MTT assay; type: functional, cell-based; details: B16, 48 h
HL-60 = assay: Cytotoxicity against human HL-60 cells assessed as inhibition of cell proliferation incubated for 72 hrs by MTT assay; type: functional, cell-based; details: HL-60, 72 h
Lung NSCLC-N6 cell-line = assay: Cytotoxicity against human Lung NSCLC-N6 cell-line by MTT colorimetric assay; type: functional, cell-based
HCT-116 [9] = assay: Cytotoxicity against human HCT-116 cells assessed as cell growth inhibition incubated for 72 hrs by celltiter 96 aqueous cell proliferation assay; type: functional, cell-based; details: HCT-116, 72 h
HeLa S3 [10] = assay: Cytotoxicity against human HeLa S3 cells; type: functional, cell-based
P388 = assay: Cytotoxicity against mouse P388 cells; type: functional, cell-based; details: p388
B16 [11] = assay: Cytotoxicity against mouse B16 cells; type: functional, cell-based; details: b16
NCI-H69 = assay: Cytotoxicity against human NCI-H69 cells; type: functional, cell-based
P388/ADM = assay: Cytotoxicity against mouse P388/ADM cells; type: functional, cell-based
NUGC-3 = assay: Cytotoxicity against human NUGC-3 cells assessed as cell growth inhibition incubated for 30 mins by MTT assay; type: functional, cell-based; details: NUGC-3, 0.5 h

Structure (SMILES): CCCCCCCCCCCCOC[C@@H](COC(C)=O)O[C@@H]1OC[C@@H](O)[C@@H](O)[C@@H]1O
- IC50 (HepG2): 9.2 µg/mL (≈ 21.2 µM)
- IC50 (Hep 3B2): 9.2 µg/mL (≈ 21.2 µM)
- IC50 (MDA-MB-231): 9.2 µg/mL (≈ 21.2 µM)
- IC50 (Ca9-22): 9.2 µg/mL (≈ 21.2 µM)

Structure (SMILES): CCCCCCCCCCCCCCCCCCCCCCCCCCCC(=O)OC[C@H](CC[C@@H]1O[C@H](CO)[C@@H](O)[C@H](O)[C@H]1O)OC(=O)CCCCCCCCCCCCCCCCCCCCCCCCCCC
- IC50 (HeLa [1]): > 100 µg/mL

Structure (SMILES): CCCCCCCC/C=C\CCCCCCCCNC(=O)[C@H]1[C@@H]2OC(C)(C)O[C@@H]2[C@](C)(CO)N1CCCC
- IC50 (MIA PaCa-2): 3.6 µM
- IC50 (PK9): 17 µM

Structure (SMILES): CC/C=C\C/C=C\C/C=C\CCCCCCCC(=O)OCC(CO[C@@H]1O[C@H](CO)[C@H](O)[C@H](O)[C@H]1O)OC(=O)CCCCCCCCCCCCCCC (stereo partly specified)
- IC50 (AGS): 39 µg/L (≈ 0.0518 µM)
- IC50 (SF-268): 39 µg/L (≈ 0.0518 µM)
- IC50 (HCT-116 [2]): 39 µg/L (≈ 0.0518 µM)
- IC50 (NCI-H460): 39 µg/L (≈ 0.0518 µM)
- IC50 (MCF7): 39 µg/L (≈ 0.0518 µM)

Structure (SMILES): CCCCCCCCCC(=O)OCC(COC(=O)CCCCCCCCC)O[C@@H]1O[C@H](C(=O)O)[C@@H](O)[C@H](O)[C@H]1O
- IC50 [3]: 30.8 µM
- IC50 (IGROV-1 [4]): 156 µM
- IC50 (IGROV-1 [5]): 9.4 µM

Structure (SMILES): C=C1[C@@H](OC)C/C=C/[C@@H](O[C@@H]2O[C@H](CO)[C@@H](O)[C@H](OC)[C@H]2O)CC(=O)O[C@@H](/C=C(/C)C/C=C/C)C/C=C/C=C/C[C@H](C)[C@@H]1OO
- IC50 (HeLa S3 [6]): > 10 µM

Structure (SMILES): CC/C=C\C/C=C\C/C=C\CCCCCCCC(=O)OCC(CO[C@@H]1O[C@H](CO)[C@H](O)[C@H](O)[C@H]1O)OC(=O)CCCCCCC/C=C\C/C=C\C/C=C\CC (stereo partly specified)
- IC50 (AGS): 39 µg/L (≈ 0.0503 µM)
- IC50 (SF-268): 39 µg/L (≈ 0.0503 µM)
- IC50 (HCT-116 [2]): 39 µg/L (≈ 0.0503 µM)
- IC50 (NCI-H460): 39 µg/L (≈ 0.0503 µM)
- IC50 (MCF7): 39 µg/L (≈ 0.0503 µM)

Structure (SMILES): CC/C=C\C/C=C\C/C=C\CCCCCCCC(=O)OCC(CO[C@H]1O[C@H](CN)[C@@H](O)[C@H](O)[C@H]1O)OC(=O)CCCCCCC/C=C\C/C=C\C/C=C\CC (stereo partly specified)
- IC50 (SMMC-7721): 70.3 µg/mL (≈ 90.8 µM)
- IC50 (HeLa [7]): 70.3 µg/mL (≈ 90.8 µM)
- IC50 (B16 [8]): 70.3 µg/mL (≈ 90.8 µM)

Structure (SMILES): C/C=C/C/C(C)=C\[C@H]1C/C=C/C=C/C[C@H](C)/C=C(\C)[C@@H](OC)C[C@@H](O)C[C@@H](O[C@@H]2O[C@H](CO)[C@@H](O)[C@H](OC)[C@H]2O)CC(=O)O1
- IC50 (HL-60): 40 nM
- IC50 (HeLa S3 [6]): 6.5 µM

Structure (SMILES): CC/C=C\C/C=C\C/C=C\CCCCCCCC(=O)OCC(CO[C@H]1O[C@H](CNC(=O)CCc2ccc(O)cc2)[C@@H](O)[C@H](O)[C@H]1O)OC(=O)CCCCCCC/C=C\C/C=C\C/C=C\CC (stereo partly specified)
- IC50 (SMMC-7721): 70.3 µg/mL (≈ 76.2 µM)
- IC50 (HeLa [7]): 70.3 µg/mL (≈ 76.2 µM)
- IC50 (B16 [8]): 70.3 µg/mL (≈ 76.2 µM)

Structure (SMILES): C/C=C/C/C(C)=C\[C@H]1C/C=C/C=C/C[C@H](C)/C=C(\C)[C@@H](OC)C[C@@H](O)C[C@@H](O)CC(=O)O1
- IC50 (HL-60): 12 nM
- IC50 (HeLa S3 [6]): 0.039 µM

Structure (SMILES): CO[C@@H]1/C=C(\C)C[C@H](/C=C/C#C[C@H]2C[C@@H]2Cl)OC(=O)[C@@H](C)[C@]2(O)C[C@H](O[C@@H]3O[C@@H](C)[C@H](O[C@@H]4O[C@@H](C)[C@H](O)[C@@](C)(O)[C@H]4O)[C@@](C)(O)[C@H]3OC)[C@@H](C)[C@@H](O2)[C@@H]1C
- IC50 (Lung NSCLC-N6 cell-line): 30 µg/mL (≈ 37.4 µM)
- IC50 (HCT-116 [9]): 2000 nM

Structure (SMILES): CCCCCCCCCCCCCC(=O)OCC(O)C[C@@H]1O[C@H](COC(C)=O)[C@H](OC(C)=O)[C@H](OC(C)=O)[C@H]1OC(C)=O (stereo partly specified)
- IC50 (HeLa [1]): 57 µg/mL (≈ 92.4 µM)

Structure (SMILES): CCCCCCCCCCCCCCCCCCCCCCCCCCCC(=O)OC[C@H](CC[C@@H]1O[C@H](CO)[C@H](O)[C@H](O)[C@H]1O)OC(=O)CCCCCCCCCCCCCCCCCCCCCCCCCCC
- IC50 (HeLa [1]): > 100 µg/mL

Structure (SMILES): C/C=C(\C)C(O[C@@H]1O[C@H](CO)[C@@H](O)[C@H](O)[C@H]1O)C(C)/C=C(C)/C=C/CC(C)(O)/C=C/c1nc(OC)c(OC)c(O)c1C (stereo in doubt; 283)
- IC50 (HeLa S3 [10]; Homo sapiens, HeLa S3, read-out: IC50): 0.62 µg/mL (≈ 1.04 µM)
- IC50 (P388): 0.58 µg/mL (≈ 0.977 µM)
- IC50 (B16 [11]): 0.32 µg/mL (≈ 0.539 µM)
- IC50 (NCI-H69; Homo sapiens, NCI-H69, read-out: IC50): 0.47 µg/mL (≈ 0.792 µM)
- IC50 (P388/ADM; Mus musculus, P388/ADM, read-out: IC50): 4.3 µg/mL (≈ 7.24 µM)

Structure (SMILES): C/C=C(\C)C(O[C@@H]1O[C@H](CO)[C@@H](O)[C@H](O)[C@H]1O)C(C)/C=C(C)/C=C/CC(C)(O)/C=C/c1nc(OC)c(OC)c(O)c1C (stereo in doubt; 284)
- IC50 (HeLa S3 [10]; hela s3): 0.98 µg/mL (≈ 1.65 µM)
- IC50 (P388): 2.5 µg/mL (≈ 4.21 µM)
- IC50 (B16 [11]): 0.67 µg/mL (≈ 1.13 µM)
- IC50 (NCI-H69; nci-h69): 0.83 µg/mL (≈ 1.4 µM)
- IC50 (P388/ADM; p388/adm): 4.2 µg/mL (≈ 7.07 µM)

Structure (SMILES): CCCCCCCCCCCCCCCCCC(=O)OCC(O)CO (stereo unspecified) [GLYCERYL MONOSTEARATE]
- IC50 (NUGC-3): 100 µM
